Measured values taken from patent US20060079453A1, “Hla binding peptides and their uses” (priority 2002, published 2006).
No end group written: not given here.

Legend:
Assay in all cases: biochemical
Format in all cases: binding
[1] = target: HLA-DR DRB1*0101 (DR1) (Homo sapiens, UniProt P01903+P01911, A100R/D57E/F55L/F60I/F76Y/I96L/L162R/M171V/P40L/Q125E/R42F/V115G/Y59C); conditions: DRB1 *0101
[2] = target: HLA-DR DRB1*0301 (DR3) (Homo sapiens, UniProt P01903+P01911, A100K/A102G/A103R/A169T/F55Y/I96L/K41T/L162R/M171V/P40S/Q125H/Q178H/Q39Y/R42S/S66N/T106N/T262R/W38E/Y61H)
HLA-DR DRB1*0301 (DR3), sequence (P01903 26-254 limits assumed, other chains not shown): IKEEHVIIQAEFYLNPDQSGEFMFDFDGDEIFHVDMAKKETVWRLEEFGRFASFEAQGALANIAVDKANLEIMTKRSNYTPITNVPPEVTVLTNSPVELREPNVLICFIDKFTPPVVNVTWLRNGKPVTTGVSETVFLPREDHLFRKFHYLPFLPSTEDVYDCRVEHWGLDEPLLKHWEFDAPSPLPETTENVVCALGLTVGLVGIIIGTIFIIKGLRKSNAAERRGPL

[3] = target: HLA-DR DRB1*0401 (DR4) (Homo sapiens, UniProt P01903+P01911, A100K/A169T/F76Y/I96L/K127E/L162R/M171V/N62H/P40V/Q125Y/R42H/S133A/S149N/S66Y/V115G/V209L/W38E); conditions: DRB1 *0401
[4] = target: HLA-DR DRB1*0802 (DR8) (Homo sapiens, UniProt P01903+P01911, A100R/A103L/A169T/F76Y/H45Y/I96F/K41T/L162R/M171V/P40S/Q125H/Q178H/Q39Y/Q99D/R218S/R42G/S66Y/V115G/W38E)
[5] = target: HLA-DR DRB1*1302 (DR13) (Homo sapiens, UniProt P01903+P01911, A100E/A169T/K41T/L162R/M171V/P40S/Q125H/Q178H/Q39Y/Q99D/R42S/S66N/T262R/V115G/W38E/Y61H); conditions: DRBI *1302
HLA-DR DRB1*1302 (DR13), sequence (P01903 26-254 limits assumed, other chains not shown): as above

[6] = target: HLA-DR DRB1*1501 (DR15) (Homo sapiens, UniProt P01903+P01911); conditions: DRBI *1501
[7] = target: HLA-DR DRB3*0101 (DR52) (Homo sapiens, UniProt P01903+P79483)
[8] = target: HLA-DR DRB4*0101 (DR53) (Homo sapiens, UniProt P01903+P13762, G164S); conditions: DRB4 *0101
[9] = target: HLA-DR DRB5*0101 (DR51) (Homo sapiens, UniProt P01903+Q30154); conditions: DRB5 *0101
[10] = target: HLA-DR DRB1*0701 (DR7) (Homo sapiens, UniProt P01903+P01911, A100R/A102G/A103Q/D57E/D86V/E43K/F76Y/K127E/L162R/M171V/P40G/Q125H/Q99D/R33Q/R42Y/R54Q/S133A/S66F/T210M/V115G/Y107V/Y59L/Y89S); conditions: DRB1 *0701
[11] = target: HLA-DR DRB1*0901 (DR9) (Homo sapiens, UniProt P01903+P01911, A100R/A103E/D57H/D86V/F55Y/F60I/F76Y/I96F/K127E/L162R/M171V/P40D/Q125H/Q99R/R33Q/R42F/S133A/S66N/T210M/V115G/W38K/Y107V/Y59G/Y89S); conditions: DRB1 *0901
[12] = target: HLA-DR DRB1*1101 (DR11) (Homo sapiens, UniProt P01903+P01911, A100R/A169T/A87E/I96F/K41T/L162R/M171V/P40S/Q125H/Q178H/Q39Y/Q99D/R42S/S66Y/T262R/V115G/W38E); conditions: DRB1 *1101
HLA-DR DRB1*1101 (DR11), sequence (P01903 26-254 limits assumed, other chains not shown): as above

| Compound | IC50 [1] | IC50 [2] | IC50 [3] | IC50 [4] | IC50 [5] | IC50 [6] | IC50 [7] | IC50 [8] | IC50 [9] | IC50 [10] | IC50 [11] | IC50 [12] |
| --- | --- | --- | --- | --- | --- | --- | --- | --- | --- | --- | --- | --- |
| CC(C)C[C@H](NC(=O)[C@@H](NC(=O)[C@H](CCC(N)=O)NC(=O)[C@H](Cc1c[nH]c2ccccc12)NC(=O)[C@@H]1CCCN1C(=O)[C@H](CCC(N)=O)NC(=O)[C@@H](N)CO)C(C)C)C(=O)N[C@H](C(=O)N[C@@H](C)C(=O)N[C@@H](CO)C(=O)N[C@@H](CCCNC(=N)N)C(=O)NCC(=O)N[C@@H](CCCNC(=N)N)C(=O)N[C@@H](C)C(=O)N[C@H](C(=O)O)C(C)C)C(C)C | 66 nM | > 81800 nM | 7630 nM | 386 nM | 32 nM | 11300 nM | > 12100 nM | 7560 nM | 84 nM |  |  |  |
| CC[C@H](C)[C@H](N)C(=O)N[C@@H](CC(C)C)C(=O)N[C@@H](CC(C)C)C(=O)N[C@@H](Cc1c[nH]c2ccccc12)C(=O)N[C@@H](CCC(N)=O)C(=O)N1CCC[C@H]1C(=O)N[C@H](C(=O)N1CCC[C@H]1C(=O)N[C@H](C(=O)N[C@@H](Cc1c[nH]cn1)C(=O)N[C@H](C(=O)N[C@H](C(=O)N1CCC[C@H]1C(=O)N[C@@H](CC(C)C)C(=O)N[C@@H](CO)C(=O)O)C(C)C)[C@@H](C)O)C(C)C)[C@@H](C)CC | 45 nM | > 81800 nM | 170 nM |  | 1110 nM | 65 nM | > 8830 nM | 712 nM | 28800 nM | 19 nM | 131 nM | 2340 nM |
| LFRVYSNFLRGKLKL | 43 nM | 6160 nM | 643 nM | 28 nM | 80 nM | 2.8 nM | 8980 nM | 2330 nM | 2.9 nM | 5.5 nM |  | 173 nM |
| VILLGRHSLFHPEDT | 273 nM | 8740 nM | 8210 nM | 737 nM | 543 nM | 426 nM | > 12100 nM | 10700 nM | ≥ 100000 nM | 30600 nM |  |  |
| AKTFLRTLVRGVPEY | 104 nM | 54200 nM | 208 nM | 9.2 nM | 94 nM | 829 nM | 546 nM | 472 nM | 3480 nM | 25 nM |  | 6.3 nM |
| GNEIFNTSLFEPPPP | 20400 nM |  | > 20000 nM | > 163000 nM | 2800 nM | > 91000 nM | > 13200 nM | 835 nM | > 200000 nM | > 35700 nM |  | > 40000 nM |
| CC(C)C[C@H](NC(=O)[C@@H](NC(=O)CN)C(C)C)C(=O)N[C@H](C(=O)N[C@@H](Cc1c[nH]cn1)C(=O)N1CCC[C@H]1C(=O)N[C@@H](CCC(N)=O)C(=O)N[C@@H](Cc1c[nH]c2ccccc12)C(=O)N[C@H](C(=O)N[C@@H](CC(C)C)C(=O)N[C@H](C(=O)N[C@@H](C)C(=O)N[C@@H](C)C(=O)N[C@@H](Cc1c[nH]cn1)C(=O)N[C@@H](CS)C(=O)O)[C@@H](C)O)C(C)C)C(C)C | 87 nM | 21300 nM | 67 nM | 1930 nM | 2430 nM | 66 nM | > 10700 nM | 6.2 nM |  |  |  |  |
| CC(C)C[C@H](NC(=O)[C@H](CCC(=O)O)NC(=O)[C@H](CCCCN)NC(=O)[C@H](C)N)C(=O)N[C@@H](CCCCN)C(=O)N[C@@H](Cc1ccccc1)C(=O)N[C@H](C(=O)N[C@H](C(=O)N[C@@H](CC(C)C)C(=O)N[C@H](C(=O)N[C@@H](Cc1ccccc1)C(=O)N[C@@H](CCCNC(=N)N)C(=O)N[C@@H](Cc1c[nH]cn1)C(=O)NCC(=O)N[C@@H](CC(=O)O)C(=O)O)C(C)C)[C@@H](C)O)C(C)C |  | 30000 nM | 783 nM | 1950 nM | 824 nM |  | 8560 nM | 51 nM | 24 nM |  |  |  |
| ADKIYSISMKHPQEM |  |  | 5310 nM | 1140 nM | 4960 nM | 8270 nM | > 21900 nM | 3550 nM |  | 4100 nM |  |  |
| CC[C@H](C)[C@H](N)C(=O)N[C@@H](Cc1ccc(O)cc1)C(=O)N[C@@H](CO)C(=O)N[C@H](C(=O)N[C@@H](CO)C(=O)N[C@@H](CCSC)C(=O)N[C@@H](CCCCN)C(=O)N[C@@H](Cc1c[nH]cn1)C(=O)N1CCC[C@H]1C(=O)N[C@@H](CCC(N)=O)C(=O)N[C@@H](CCC(=O)O)C(=O)N[C@@H](CCSC)C(=O)N[C@@H](CCCCN)C(=O)N[C@H](C(=O)N[C@@H](Cc1ccc(O)cc1)C(=O)O)[C@@H](C)O)[C@@H](C)CC | 8450 nM |  | 16000 nM | 1360 nM | > 35000 nM |  | > 21900 nM | 5360 nM | 2590 nM |  |  | 213 nM |
| CC[C@H](C)[C@H](NC(=O)CNC(=O)[C@H](Cc1ccc(O)cc1)NC(=O)[C@H](CC(C)C)NC(=O)[C@H](CO)NC(=O)[C@H](CC(C)C)NC(=O)[C@H](CC(C)C)NC(=O)[C@H](CO)NC(=O)[C@H](CC(C)C)NC(=O)[C@H](CCC(=O)O)NC(=O)[C@H](CO)NC(=O)[C@H](CC(C)C)NC(=O)[C@H](CCC(=O)O)NC(=O)[C@H](CCCNC(=N)N)NC(=O)[C@@H](N)CC(C)C)C(=O)O | 655 nM |  | 371 nM | 9370 nM | 3220 nM | 235 nM | > 15000 nM | 544 nM | 5180 nM | 4010 nM |  | 6960 nM |
| RPGLLGASVLGLDDI |  | 35800 nM | 6520 nM | > 61200 nM | 2060 nM | 6000 nM | 30200 nM | 22000 nM | > 88900 nM |  |  | > 93900 nM |
